Nine molecules from US10131679B2, “Substituted dihydropyrrolopyrazole compound” (UBE INDUSTRIES, LTD., priority 2014, dated 2018) can be followed below.

pIC50, pKi: −log10 of the molar value.

Test [1] concerns human large intestine cancer cell line (HCT-116). Briefly: Human large intestine cancer (HCT-116) cell growth inhibition test. The settings on record: 72 h, HCT-116, culture for 3 days, sulforhodamine B absorbance. In kind it is cell-based. The procedure, abridged:
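HCT-116 cells seeded at 1.0×10^3 cells/well in McCoy's 5a with 10% FBS, then exposed to compound (0.1% DMSO final) for 3 days. Growth measured by sulforhodamine B absorbance; IC50 derived from concentration-inhibition data.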

Test [2] concerns IL-2 production in human peripheral blood mononuclear cell (PBMC). Briefly: Human PBMC CD3/CD28-induced IL-2 production inhibition test. In kind it is cell-based. The note with it: 48 h, CD3/CD28 stimulation, incubation for 2 days, ELISA. The source says: Human Peripheral Blood Mononuclear Cell (PBMC) CD3/CD28-Induced IL-2 Production Inhibition Test
PBMC was separated and collected by using Ficoll-Paque (17-1440-02 manufactured by GE Healthcare Japan Corp.) from blood collected from healthy human adult in the presence of heparin. RPMI1640 medium (manufactured by GIBCO/Thermo Fisher Scientific, Inc., REF. 11875) containing 10% FBS (manufactured by GIBCO/Thermo Fisher Scientific, Inc. REF. 10082) and containing a test compound dissolved in DMSO and 2 μg/mL anti-hCD28 (manufactured by R&D Systems, Inc., Cat. No. MAB342) was added at 100 μL/well to T cell Activation Plate Anti-Human CD3 96-well plate (manufactured by Corning Inc., REF. 354725), and subsequently, a PBMC suspension adjusted such that the number of cells was 2×10^6 cells/mL was added at 100 μL/well (final DMSO concentration: 0.1%). A RPMI1640 medium containing 10% FBS and containing 0.1% DMSO and 2 μg/mL anti-hCD28 was similarly added to wells not supplemented with the test compound. After incubation for 2 days in a carbon dioxide incubator, the culture supernatant was collected. The collected culture supernatant was stored at −20° C. until IL-2 content measurement.
In the measurement of IL-2 content in the culture supernatant, a sandwich ELISA kit Quantikine Human IL-2 (manufactured by R&D Systems, Inc., Cat. No. S2050) was used. The IL-2 content of each sample was calculated from the calibration curve of Standard IL-2 included in the kit. When the amount of IL-2 produced by CD3/CD28 stimulation in the case of the addition of only DMSO was defined as 100%, the rate of inhibition of IL-2 production at each concentration of the test compound was calculated. A test compound concentration inhibiting 50% of IL-2 production was calculated as an IC50 value (nM) from the concentration of the added test compound and the rate of inhibition of IL-2 production by the test compound by using EXSUS (version 8.0.0 or version 8.0.1, manufactured by CAC Exicare Corp.).
(In general: In an ELISA, binding on a coated surface is turned into a signal by an enzyme label.)

The next test concerns the target T1, CDK7 (Homo sapiens, UniProt P50613).
T1 construct: purchased Carna Biosciences, Inc. 04-108
Briefly: CDK7 enzyme inhibition test. The format is biochemical. The settings on record: Ki=IC50/(1+S/Km); 33P bound to MBP, [γ-33P]ATP, 30° C. for 20 minutes; read-out: Ki value of CDK7 inhibitory activity. The procedure, abridged: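 Recombinant CDK7 with MBP substrate and [γ-33P]ATP (500 μM solution, diluted into the mix) in HEPES pH 7.4/DTT/Triton X-100/MgCl2, 20 min at 30 °C. TCA-precipitated 33P-MBP counted by scintillation; IC50 from inhibition, Ki = IC50/(1+S/Km).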

The test system of test [3] is Human keratinocytes (NHEK-Neo Pooled). Briefly: Human keratinocyte growth inhibition assay. The format is cell-based. The settings on record: 48 h, culture for 2 days, Cell Counting Kit-8. The method, then: Human Keratinocyte Growth Inhibition Assay
The measurement of a human keratinocyte growth inhibitory effect was carried out by modifying the method of Schafer et al. (British Journal of Pharmacology, 159, 842 (2011)).
Human keratinocytes (NHEK-Neo Pooled, manufactured by Lonza Group AG, Cat. No. 00192906) were cultured in KGM-Gold Bullet Kit (manufactured by Lonza Group AG, Cat. No. 00192060) and inoculated at 2.0×10^3 cells/well to a 96-well plate. After overnight culture in a carbon dioxide incubator, a test compound dissolved in DMSO (final DMSO concentration: 0.1%) was added and left standing in a carbon dioxide incubator. After culture for 2 days, the absorbance thereof was measured by using Cell Counting Kit-8 (343-07623 manufactured by Dojindo Laboratories)).
The rate of inhibition of cell growth at each concentration was calculated from the test compound concentration and the absorbance of Cell Counting Kit-8, and the concentration of the test compound necessary for inhibiting 50% of cell growth (IC50 value) was calculated by using EXSUS (version 8.0.0 or version 8.0.1, manufactured by CAC Exicare Corp.).
(Formazan colour is commonly taken as a measure of viable cells.)

Test [4] relates to mouse imiquimod-induced psoriasis model. Briefly: Ear thickening suppression test using mouse imiquimod-induced psoriasis model. The format is in vivo. The settings on record: topical, 120 h, application of a 0.01% methanol solution for 4 days, thickness measured on day 5, BALB/c mice, read-out: rate of inhibition of increase in right auricle thickness. The method, then:
Ear Thickening Suppression Test Using Mouse Imiquimod-Induced Psoriasis Model
An imiquimod-induced psoriasis model test was carried out by modifying the method of Leslie van der Fits et al. (J. Immunol. 182, 5836 (2009)). BALB/c mice were used (female, supplied by Charles River Laboratories Japan, Inc.) as laboratory animals. On the start day of the test, the thicknesses of the right auricles of the mice were measured with a thickness gauge (model SMD-565J manufactured by TECLOCK Corp.). A test compound solution or only a solvent was applied or orally administered, and after 60 minutes, 5 mg of imiquimod (Beselna Cream 5% manufactured by Mochida Pharmaceutical Co., Ltd.) was applied to the insides of the right auricles. The test compound solution or solvent administration and the imiquimod application were carried out for 4 days, and the thicknesses of the right auricles were measured again on day 5. When increase in the thicknesses of the right auricles of the solvent-administered group on day 5 was defined as 100%, the rate of inhibition of increase (%) at each dose of the test compound was calculated.

T1 sequence (P50613 whole entry): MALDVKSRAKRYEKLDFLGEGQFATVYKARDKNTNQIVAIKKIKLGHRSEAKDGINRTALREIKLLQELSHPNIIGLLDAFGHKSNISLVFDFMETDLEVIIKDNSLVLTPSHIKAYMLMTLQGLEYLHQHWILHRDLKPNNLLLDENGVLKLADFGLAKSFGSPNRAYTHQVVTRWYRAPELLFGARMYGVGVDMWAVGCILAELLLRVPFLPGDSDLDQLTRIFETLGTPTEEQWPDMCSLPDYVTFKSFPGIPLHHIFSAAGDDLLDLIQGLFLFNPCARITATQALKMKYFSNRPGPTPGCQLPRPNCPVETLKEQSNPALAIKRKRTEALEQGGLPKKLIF
T1 sequence (P51946 whole entry partner): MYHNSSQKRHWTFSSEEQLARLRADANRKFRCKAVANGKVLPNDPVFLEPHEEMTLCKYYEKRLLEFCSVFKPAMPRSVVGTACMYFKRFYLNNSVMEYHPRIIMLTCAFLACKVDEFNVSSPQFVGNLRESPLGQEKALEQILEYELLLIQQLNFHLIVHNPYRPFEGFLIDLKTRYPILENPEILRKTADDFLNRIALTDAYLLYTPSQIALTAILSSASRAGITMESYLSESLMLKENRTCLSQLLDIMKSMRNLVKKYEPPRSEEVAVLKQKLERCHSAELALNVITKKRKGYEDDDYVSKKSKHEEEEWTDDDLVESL
T1 sequence (P51948 whole entry partner): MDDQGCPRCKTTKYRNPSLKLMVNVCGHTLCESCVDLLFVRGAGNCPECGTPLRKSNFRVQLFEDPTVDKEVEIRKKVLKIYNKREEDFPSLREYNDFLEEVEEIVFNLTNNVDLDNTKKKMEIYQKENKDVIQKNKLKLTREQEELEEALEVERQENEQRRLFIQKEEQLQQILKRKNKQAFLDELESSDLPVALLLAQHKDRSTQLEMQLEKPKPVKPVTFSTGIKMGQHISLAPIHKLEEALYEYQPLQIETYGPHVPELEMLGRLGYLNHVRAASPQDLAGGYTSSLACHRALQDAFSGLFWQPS

As usually defined, the pIC50 is the negative decadic logarithm of the IC50, by convention in mol/L. Read a low pIC50 as a large IC50. As a reminder, the pKi is −log10 of the Ki, conventionally taken in molar units. Consider `CC1(C)c2[nH]nc(NC(=O)C3([Si](C)(C)C)CCC3)c2CN1C(=O)N[C@H](CO)c1ccc(F)cc1` [IV-527, (S)—N-[1-(4-Fluorophenyl)-2-hydroxyethyl]-6,6-dimethyl-3-[1-(trimethylsilyl)cyclobutanecarboxamido]-4,6-dihydropyrrolo[3,4-c]pyrazole-5(1H)-carboxamide], for which the pIC50 in test [1] is no less than 6.30; in test [2], no less than 7.30; in test [3], no less than 6.30. Also, the pKi at CDK7 is no less than 7.30.

In the case of `CO[C@@H](C(=O)N1Cc2c(NC(=O)C3([Si](C)(C)C)CC3)n[nH]c2C1(C)C)c1ccccc1` [III-1059, (R)—N-[5-(2-Methoxy-2-phenylacetyl)-6,6-dimethyl-1,4,5,6-tetrahydropyrrolo[3,4-c]pyrazol-3-yl]-1-(trimethylsilyl)cyclopropanecarboxamide], the pIC50 in test [1] and in test [3] was no less than 6.30 in each case. The inhibition in vivo at 0.01 % in test [4] was no less than 50%. In addition, the pKi on CDK7 was no less than 7.30.

Regarding `CC1(C)c2[nH]nc(NC(=O)C3([Si](C)(C)C)CC3)c2CN1C(=O)N[C@H](CCO)c1ccccc1` [III-226, (R)—N-(3-Hydroxy-1-phenylpropyl)-6,6-dimethyl-3-[1-(trimethylsilyl)cyclopropanecarboxamido]-4,6-dihydropyrrolo[3,4-c]pyrazole-5(1H)-carboxamide], the pIC50 was no less than 6.30 in test [1], no less than 7.30 in test [2] and no less than 6.30 in test [3]. Also, on CDK7, the pKi was no less than 7.30.

With `CC1(C)c2[nH]nc(NC(=O)C3([Si](C)(C)C)CCC3)c2CN1C(=O)NC(CO)c1ccccc1F` (stereo not shown) [IV-510, N-[1-(2-Fluorophenyl)-2-hydroxyethyl]-6,6-dimethyl-3-[1-(trimethylsilyl)cyclobutanecarboxamido]-4,6-dihydropyrrolo[3,4-c]pyrazole-5(1H)-carboxamide], the negative-log IC50 (pIC50) in test [1] is no less than 6.30; in test [2], no less than 7.30. Besides, the pKi on CDK7 is no less than 7.30.

On to `CC1(C)c2[nH]nc(NC(=O)C3([Si](C)(C)C)CCC3)c2CN1C(=O)NC(C#CCO)c1ccccc1` (racemic) [IV-378, N-(4-Hydroxy-1-phenyl-2-butyn-1-yl)-6,6-dimethyl-3-[1-(trimethylsilyl)cyclobutanecarboxamido]-4,6-dihydropyrrolo[3,4-c]pyrazole-5(1H)-carboxamide], for which the pIC50 in test [1] and in test [3] was no less than 6.30 in each case. The pKi at CDK7 is no less than 7.30.

For the molecule `CC(OC1CCCCC1)C(=O)N1Cc2c(NC(=O)C3([Si](C)(C)C)CCC3)n[nH]c2C1(C)C` (stereo not shown) [IV-1255, N-{5-[2-(Cyclohexyloxy)propanoyl]-6,6-dimethyl-1,4,5,6-tetrahydropyrrolo[3,4-c]pyrazol-3-yl}-1-(trimethylsilyl)cyclobutanecarboxamide], the pIC50 in test [1] was no less than 6.30; in test [2], no less than 7.30. For the same molecule, on CDK7, the pKi was no less than 7.30.

As to `CC(C)(O)[C@@H](NC(=O)N1Cc2c(NC(=O)C3([Si](C)(C)C)CC3)n[nH]c2C1(C)C)c1ccccc1` [III-170, (S)—N-(2-Hydroxy-2-methyl-1-phenylpropyl)-6,6-dimethyl-3-[1-(trimethylsilyl)cyclopropanecarboxamido]-4,6-dihydropyrrolo[3,4-c]pyrazole-5(1H)-carboxamide], the pIC50 in test [1] is no less than 6.30; in test [2], no less than 7.30; in test [3], no less than 6.30. Besides, the pKi on CDK7 is no less than 7.30.

With `CC1(C)c2[nH]nc(NC(=O)C3([Si](C)(C)C)CCC3)c2CN1C(=O)N[C@H](COC(F)F)c1ccccc1` [IV-131, (S)—N-[2-(Difluoromethoxy)-1-phenylethyl]-6,6-dimethyl-3-[1-(trimethylsilyl)cyclobutanecarboxamido]-4,6-dihydropyrrolo[3,4-c]pyrazole-5(1H)-carboxamide], the pIC50 in test [1] and in test [3] was no less than 6.30 in each case.

Regarding `CC1(C)c2[nH]nc(NC(=O)C3([Si](C)(C)C)CCC3)c2CN1C(=O)N[C@H](CO)c1cccc(F)c1` [IV-519, (S)—N-[1-(3-Fluorophenyl)-2-hydroxyethyl]-6,6-dimethyl-3-[1-(trimethylsilyl)cyclobutanecarboxamido]-4,6-dihydropyrrolo[3,4-c]pyrazole-5(1H)-carboxamide], the figures for the pIC50 in test [1], in test [2] and in test [3] were no less than 6.30, no less than 7.30 and no less than 6.30, respectively. On CDK7, the pKi is no less than 7.30.
